Values joined by “and” are separate entries in the source; they are usually repeats but may differ in a detail not shown here. Identical values can stand only once.
Experiments:
[1] = tested on: P-selectin exposure on washed platelets; assay: ADP-stimulated P-selectin exposure (flow cytometry); format: cell-based, rat; settings: ADP 10 μM; for P-selectin exposure: mean ± SD, n = 3, 86.06 ± 9.05% without naringenin; for P-selectin (%): single replicates
Procedure: Flow cytometric assays were performed as described previously ([Wang et al., 2019]). ADP-stimulated P-selectin exposure and fibrinogen binding were determined in washed platelets. […] The platelets were immediately incubated with PE-labeled CD62P or FITC-labeled fibrinogen in the dark at room temperature for 15 min. The cells were finally fixed with 1% (v/v) paraformaldehyde prior to analysis using an Accuri C6 flow cytometer (BD Biosciences, United States).

cGMP = assay: Measurement of cGMP in washed platelets (ELISA); format: cell-based, rat; settings: single replicates
Procedure: Washed platelets were preincubated with vehicle or various concentrations of naringenin in the presence of 2 mM CaCl2 at 37°C for 5 min and then stimulated with ADP (10 μM) for 5 min for platelet aggregation. The reaction was terminated by adding EDTA (10 mM). The platelets were boiled for 5 min at 100 °C followed by centrifugation at 13,000 × g for 5 min cAMP and cGMP levels in the supernatant were measured using cAMP or cGMP enzyme immunoassay kits (Cayman Chemicals, Ann Arbor, MI, United States).
FIGURE 6 Naringenin elevates platelet cGMP levels and inhibits phosphodiesterase activity. The levels of cAMP (A) and cGMP (B) in washed platelets preincubated with vehicle or naringenin (100, 200, 400, and 800 μmol/L) were determined after stimulation with ADP (10 μmol/L) using ELISA kits. Similarly, the levels of cAMP (C) and cGMP (D) were determined in resting platelets incubated with naringenin (200, 400, and 800 μmol/L) or vehicle for 5 min. R represents the levels of cAMP or cGMP in resting platelets. Data are expressed as means ± SD (n = 4). *p < 0.05, ***p < 0.001 compared with the vehicle control group. The effects of naringenin on phosphodiesterase activity were measured by HPLC on the hydrolysis of cAMP (E) and cGMP (F). The level of phosphodiesterase activity obtained with vehicle control (0 μM) was taken as 100%. Data are expressed as means ± SD (n = 3). *p < 0.05, ***p < 0.001 compared with the vehicle control group.

[2] = tested on: VASP Ser157 phosphorylation; assay: Immunoblotting of phospho-VASP (Ser157) in ADP-stimulated washed platelets; format: cell-based, rat; settings: for p-VASP(Ser157) / GAPDH (Fold to ADP only) / p-VASP(Ser157) / GAPDH (raw data): ADP-stimulated, Figure 7B
Procedure: For in vitro platelet aggregation, aliquots of washed platelets were preincubated with vehicle or various concentrations of naringenin for 5 min and stimulated with ADP (10 μmol/L) under stirring at 37°C for 5 min. For ex vivo platelet aggregation, PRP was incubated at 37°C for 5 min and stimulated with ADP (5 μmol/L) under stirring at 37 °C. The platelet aggregation was terminated by adding ethylenediaminetetraacetic acid (EDTA; 10 mM). Total protein was prepared using RIPA lysis buffer and protein content was determined by bicinchoninic acid (BCA) protein assay kit. Equal amounts of platelet proteins (30 μg) were separated on 10% SDS polyacrylamide gel electrophoresis (SDS-PAGE) and then transferred to poly vinylidene difluoride (PVDF) membranes and subjected to western blot. Blots were blocked with TBS-Tween 20 containing 5% BSA and probed with primary antibodies diluted in blocking solution at 4°C overnight followed by incubation with the corresponding HRP secondary antibodies. The protein bands were visualized using enhanced chemiluminescence (ECL).
VASP is a substrate for cAMP- and cGMP- dependent protein kinases, which mediate cAMP- and cGMP-dependent inhibitory signaling in platelets, respectively. Increased cAMP levels followed by the activation of cAMP-dependent protein kinase A (PKA) phosphorylates VASP at position Ser157, whereas the elevation of cGMP leads to VASP phosphorylation at position Ser239 by cGMP-dependent protein kinase G (PKG) ([Aszódi et al., 1999]; [Li et al., 2003a]). To further examine whether naringenin modulates cAMP- or cGMP-mediated inhibitory signaling, the phosphorylation of VASP (Ser157 and Ser239) in washed platelets on stimulation with ADP were measured in the absence or presence of naringenin (100, 200, 400, and 800 μM). […] To further confirm the antiplatelet effects of naringenin through PKA-dependent signaling, the effects of naringenin on platelet aggregation were measured in the presence of PKG inhibitor (Rp-8-Br-PET-cGMPS) and PKA inhibitor (H89).
FIGURE 7 Naringenin promotes VASP phosphorylation. The effects of naringenin on phosphorylation of VASP (at positions Ser 157 and Ser239) were measured in washed platelets upon stimulation with ADP (10 μmol/L) by western blotting (A). The blots shown are representative of three separate experiments. The phosphorylation levels were quantified by ImageJ 1.47v software. The level of phosphorylation obtained with vehicle control (0 μM) was taken as 1 (B,C). R represents the phosphorylation level in resting platelets. Data are expressed as means ± SD (n = 3). *p < 0.05, ***p < 0.001 compared with the vehicle control group. VASP phosphorylation at Ser239 was also analyzed in washed platelets incubated with 5 μmol/L PKA (H89), 30 μmol/L PKG (Rp-8-Br-PET-cGMPS), or 5 μmol/L PKC (GF109203X) inhibitors before treatment with naringenin (D). Washed platelets were incubated with vehicle or naringenin (200 μmol/L) at 37°C in the presence or absence of 5 μmol/L PKA (H89) or 30 μmol/L PKG (Rp-8-Br-PET-cGMPS) inhibitors. After treatment, platelets were stimulated with ADP (10 μmol/L) to trigger aggregation (E). Data are expressed as means ± SD (n = 6). ***p < 0.001 compared with the ADP-treated group, ^# p < 0.05, ^### p < 0.001 compared with naringenin alone or H89 alone.

washed rat platelets = assay: ADP (10 μM)-induced aggregation of washed rat platelets; format: cell-based; settings: H89+Naringenin (200 μM)+ADP (10 μM); Figure 7E

Q: How did the P-selectin exposure ([1]; 200 μM) turn out when `O=C1C[C@@H](c2ccc(O)cc2)Oc2cc(O)cc(O)c21` [Naringenin] was run?
A: 58.33 ± 7.86%

Q: And the “P-selectin (%)” value ([1]; 200 μM)?
A: 50.70% and 58.70% and 65.60%

Q: And the P-selectin exposure ([1]; 400 μM)?
A: 35.12 ± 11.91%

Q: And the “P-selectin (%)” value ([1]; 400 μM)?
A: 22.54% and 46.23% and 36.58%

Q: What about the P-selectin exposure ([1]; 800 μM) of the same compound?
A: 31.56 ± 7.26%

Q: What about the “P-selectin (%)” value ([1]; 800 μM) of the same compound?
A: 24.10% and 32.22% and 38.35%

Q: What about the “cGMP release” value (cGMP; ADP 10 μmol/L-stimulated platelets, 100 μM) of the same compound?
A: 24.01 pmol/mL and 25.36 pmol/mL and 20.40 pmol/mL and 17.36 pmol/mL

Q: What about the “cGMP release” value (cGMP; ADP 10 μmol/L-stimulated platelets, 200 μM) of the same compound?
A: 33.37 pmol/mL and 25.13 pmol/mL and 28.27 pmol/mL and 30.16 pmol/mL

Q: What about the “cGMP release” value (cGMP; ADP 10 μmol/L-stimulated platelets, 400 μM) of the same compound?
A: 35.44 pmol/mL and 31.24 pmol/mL and 34.51 pmol/mL and 37.74 pmol/mL

Q: What about the “cGMP release” value (cGMP; ADP 10 μmol/L-stimulated platelets, 800 μM) of the same compound?
A: 43.44 pmol/mL and 33.82 pmol/mL and 49.35 pmol/mL and 41.72 pmol/mL

Q: And the “cGMP release” value (cGMP; resting platelets, 200 μM, 5 min)?
A: 32.45 pmol/mL and 25.29 pmol/mL and 28.34 pmol/mL and 23.70 pmol/mL

Q: And the “cGMP release” value (cGMP; resting platelets, 400 μM, 5 min)?
A: 30.89 pmol/mL and 30.12 pmol/mL and 36.90 pmol/mL and 24.38 pmol/mL

Q: And the “cGMP release” value (cGMP; resting platelets, 800 μM, 5 min)?
A: 36.72 pmol/mL and 44.35 pmol/mL and 55.79 pmol/mL and 49.00 pmol/mL

Q: What about the “phosphorylation of VASP at Ser157” value ([2]; ADP-stimulated washed platelets, 100, 200, 400, and 800 μM) of the same compound?
A: did not significantly alter

Q: And the “p-VASP(Ser157) / GAPDH (Fold to ADP only)” value ([2]; naringenin 200 μM)?
A: 1.6152 and 1.1716 and 1.5055

Q: And the “p-VASP(Ser157) / GAPDH (raw data)” value ([2]; naringenin 200 μM)?
A: 0.7758 and 0.5628 and 0.7232

Q: And the “p-VASP(Ser157) / GAPDH (Fold to ADP only)” value ([2]; naringenin 400 μM)?
A: 1.6752 and 1.3720 and 1.0597

Q: And the “p-VASP(Ser157) / GAPDH (raw data)” value ([2]; naringenin 400 μM)?
A: 0.8047 and 0.6590 and 0.5090

Q: And the “p-VASP(Ser157) / GAPDH (Fold to ADP only)” value ([2]; naringenin 800 μM)?
A: 1.6695 and 1.5145 and 1.3641

Q: And the “p-VASP(Ser157) / GAPDH (raw data)” value ([2]; naringenin 800 μM)?
A: 0.8019 and 0.7275 and 0.6552

Q: What about the “Aggregation (%)” value (washed rat platelets) of the same compound?
A: 25.0% and 17.3% and 32.6% and 33.0% and 28.0% and 21.0%

Reference: paper PMC8406801, “Naringenin Inhibits Platelet Activation and Arterial Thrombosis Through Inhibition of Phosphoinositide 3-Kinase and Cyclic Nucleotide Signaling” (Frontiers in Pharmacology, 2021)
